Measured values reported in ChEMBL document CHEMBL4219147, “Design, synthesis, and structure-activity relationships of novel 4,7,12,12a-tetrahydro-5H-thieno[3',2':3,4]pyrido[1,2-b]isoquinoline and 5,8,12,12a-tetrahydro-6H-thieno[2',3':4,5]pyrido[2,1-a]isoquinoline derivatives as cellular activators of adenosine 5'-monophosphate-activated protein kinase …” (Bioorg Med Chem, 2018).
Calls of active or inactive are those of the source. No cut-off for these calls is given here.

Legend:
[1] = Cytotoxicity against Sprague-Dawley rat L6 cells assessed as cell viability at 5 uM after 12 hrs by SRB assay (reference value: 100 +/- 1.8%); assay type: cell-based; details: read-out: Activity
L6 [2] = assay: Activation of AMPK in differentiated Sprague-Dawley rat L6 myotube cells assessed as glucose consumption at 20 uM after 12 hrs by colorimetric assay (reference value: 100 +/- 1.8%); assay type: cell-based
L6 [3] = assay: Activation of AMPK in differentiated Sprague-Dawley rat L6 myotube cells assessed as glucose consumption at 5 uM after 12 hrs by colorimetric assay (reference value: 100 +/- 1.8%); assay type: cell-based
L6 [4] = assay: Activation of AMPK in differentiated Sprague-Dawley rat L6 myotube cells assessed as glucose consumption at 10 uM after 12 hrs by colorimetric assay (reference value: 100 +/- 1.8%); assay type: cell-based
[5] = Cytotoxicity against Sprague-Dawley rat L6 cells assessed as cell viability at 20 uM after 12 hrs by SRB assay (reference value: 100 +/- 1.8%); assay type: cell-based; details: read-out: Activity
[6] = Cytotoxicity against Sprague-Dawley rat L6 cells assessed as cell viability at 10 uM after 12 hrs by SRB assay (reference value: 100 +/- 1.8%); assay type: cell-based; details: read-out: Activity
L6 [7] = assay: Activation of AMPK in differentiated Sprague-Dawley rat L6 myotube cells assessed as increase in glucose consumption at 5 to 20 uM after 12 hrs by colorimetric assay relative to control; assay type: cell-based
Rattus norvegicus [8] = organism: Rattus norvegicus; assay: Activation of AMPK in Sprague-Dawley rat primary hepatocytes assessed as inhibition of gluconeogenesis by measuring glucose production at 10 uM after 6 hrs by colorimetric assay (reference value: 100 +/- 3.5%); parameters: scale not given: the % may be the effect or the level left
L6 [9] = assay: Inhibition of mitochondrial respiratory complex 1 in differentiated Sprague-Dawley rat L6 myotube cells assessed as mitochondrial membrane potential at 10 uM after 40 to 60 mins by JC-1 staining based fluorescence assay (reference value: 100 +/- 1.6%); assay type: cell-based; parameters: scale not given: the % may be the effect or the level left
L6 [10] = assay: Activation of AMPK in Sprague-Dawley rat L6 myotube cells assessed as increase in acetyl-CoA carboxylase phosphorylation at Ser79 residues at 5 to 20 uM after 1 hr by Western blot analysis; assay type: cell-based
L6 [11] = assay: Inhibition of mitochondrial respiratory complex 1 in differentiated Sprague-Dawley rat L6 myotube cells assessed as mitochondrial membrane potential at 20 uM after 40 to 60 mins by JC-1 staining based fluorescence assay (reference value: 100 +/- 1.6%); assay type: cell-based; parameters: scale not given: the % may be the effect or the level left
L6 [12] = assay: Activation of AMPK in differentiated Sprague-Dawley rat L6 myotube cells assessed as increase in glucose consumption at 5 to 20 uM after 12 hrs by colorimetric assay relative to berberine; assay type: cell-based
L6 [13] = assay: Inhibition of mitochondrial respiratory complex 1 in differentiated Sprague-Dawley rat L6 myotube cells assessed as mitochondrial membrane potential at 5 uM after 40 to 60 mins by JC-1 staining based fluorescence assay (reference value: 100 +/- 1.6%); assay type: cell-based; parameters: scale not given: the % may be the effect or the level left
Rattus norvegicus [14] = organism: Rattus norvegicus; assay: Activation of AMPK in Sprague-Dawley rat primary hepatocytes assessed as inhibition of gluconeogenesis by measuring glucose production at 5 uM after 6 hrs by colorimetric assay (reference value: 100 +/- 3.5%); parameters: scale not given: the % may be the effect or the level left
Rattus norvegicus [15] = organism: Rattus norvegicus; assay: Activation of AMPK in Sprague-Dawley rat primary hepatocytes assessed as inhibition of gluconeogenesis by measuring glucose production at 20 uM after 6 hrs by colorimetric assay (reference value: 100 +/- 3.5%); parameters: scale not given: the % may be the effect or the level left
L6 [16] = assay: Upregulation of AMPKalpha phosphorylation at Thr172 residues in Sprague-Dawley rat L6 myotube cells at 5 to 20 uM after 1 hr by Western blot analysis; assay type: cell-based
Rattus norvegicus [17] = organism: Rattus norvegicus; assay: Activation of AMPK in Sprague-Dawley rat primary hepatocytes assessed as inhibition of gluconeogenesis by measuring glucose production after 6 hrs by colorimetric assay

Structure (SMILES)	viability at 12 h, 5 µM [1] [%]	Activity (L6 [2]) [%]	Activity (L6 [3]) [%]	Activity (L6 [4]) [%]	viability at 12 h, 20 µM [5] [%]	viability at 12 h, 10 µM [6] [%]	fold change (FC) (L6 [7])	Activity (Rattus norvegicus [8]) [%]	Activity (L6 [9]) [%]	Activity (L6 [10])	Activity (L6 [11]) [%]	fold change (FC) (L6 [12])	Activity (L6 [13]) [%]	Activity (Rattus norvegicus [14]) [%]	Activity (Rattus norvegicus [15]) [%]	Activity (L6 [16])	inhibition (Rattus norvegicus [17])
COc1ccc(OC)c2c1CC1c3cc(Cc4ccc(S(C)(=O)=O)cc4)sc3CCN1C2 (stereo not drawn)	101	97.9	128	106	101	102	1.1	–	–	–	–	–	–	–	–	–	–
COc1ccc(OC)c2c1CC1c3cc(Cc4ccc(N5CCN(C)CC5)cc4)sc3CCN1C2 (stereo not drawn)	106	181	168	169	107	104	1.7	–	–	–	–	–	–	–	–	–	–
COc1ccc(OC)c2c1CC1c3cc(Cc4ccc(N(C)C)cc4)sc3CCN1C2 (stereo not drawn)	110	230	200	201	107	108	2	–	–	–	–	–	–	–	–	–	–
COc1ccc(OC)c2c1CC1c3cc(Cc4ccncc4)sc3CCN1C2 (stereo not drawn)	105	153	111	130	104	110	1.3 to 1.5	–	–	–	–	–	–	–	–	–	–
COc1ccc(OC)c2c1CC1c3cc(Cc4ccc5c(c4)CCO5)sc3CCN1C2 (stereo not drawn)	101	212	200	212	103	103	2.1 to 2.7	–	–	–	–	–	–	–	–	–	–
COc1ccc(OC)c2c1CC1c3cc(C(C)c4ccccc4)sc3CCN1C2 (stereo not drawn)	101	246	244	264	101	102	2.3 to 2.9	39.5	76.6	Active	66	2.3	86.6	43.4	36	Active	Dose-dependent effect
COc1ccc(OC)c2c1CC1c3cc(Cc4ccccn4)sc3CCN1C2 (stereo not drawn)	104	172	140	148	103	103	1.3 to 1.5	–	–	–	–	–	–	–	–	–	–
COc1ccc(OC)c2c1CC1c3cc(Cc4ccc(N5CCCCC5)cc4)sc3CCN1C2 (stereo not drawn)	103	270	214	252	102	101	2.5	46.7	71.7	Active	58.5	–	82.8	51.6	43	Active	Dose-dependent effect
N#CC(C#N)=NNc1cccc(Cl)c1	–	–	–	–	–	–	–	–	42.9	–	–	–	–	–	–	–	–
COc1ccc(OC)c2c1CC1c3cc(Cc4ccc(Br)cc4)sc3CCN1C2 (stereo not drawn)	101	242	169	187	101	105	1.9	–	–	–	–	–	–	–	–	–	–
COc1ccc(OC)c2c1CC1c3cc(Cc4ccc(N5CCOCC5)cc4)sc3CCN1C2 (stereo not drawn)	97.7	157	97.1	137	98.9	99.2	1.4	–	–	–	–	–	–	–	–	–	–
COc1ccc(OC)c2c1CC1c3cc(Cc4ccc(C(F)(F)F)cc4)sc3CCN1C2 (stereo not drawn)	102	229	156	189	100	101	1.9	–	–	–	–	–	–	–	–	–	–
COc1ccc(OC)c2c1CC1c3cc(Cc4cc(OC)c(OC)c(OC)c4)sc3CCN1C2 (stereo not drawn)	95.3	184	174	188	104	104	1.9	–	–	–	–	–	–	–	–	–	–
COc1ccc(OC)c2c1CC1c3cc(Cc4ccc(NC(C)=O)cc4)sc3CCN1C2 (stereo not drawn)	96.2	142	121	130	94.9	97.2	1.3	–	–	–	–	–	–	–	–	–	–
COc1ccc(OC)c2c1CC1c3cc(Cc4nccs4)sc3CCN1C2 (stereo not drawn)	104	167	134	152	103	103	1.3 to 1.5	–	–	–	–	–	–	–	–	–	–
COc1ccc(OC)c2c1CC1c3cc(Cc4cccc(C)c4)sc3CCN1C2 (stereo not drawn)	99.6	251	237	266	101	99	–	65.6	77.8	Active	67.6	–	84.5	82.7	47.5	Active	Dose-dependent effect
